Reference: ChEMBL document CHEMBL3882390, “Method for selectively inhibiting ACAT1 in the treatment of neurodegenerative diseases” (2014)
Values belong to the compound of their own block, whether it stands above or below them. The source made the active and inactive calls. The calls are words filed in the database; no cut-off is given here.

Experiments:
[1] = target: T1, Sterol O-acyltransferase 2 (Homo sapiens, UniProt O75908); assay: Inhibition of ACAT2 (unknown origin)
T1 sequence (O75908 whole entry): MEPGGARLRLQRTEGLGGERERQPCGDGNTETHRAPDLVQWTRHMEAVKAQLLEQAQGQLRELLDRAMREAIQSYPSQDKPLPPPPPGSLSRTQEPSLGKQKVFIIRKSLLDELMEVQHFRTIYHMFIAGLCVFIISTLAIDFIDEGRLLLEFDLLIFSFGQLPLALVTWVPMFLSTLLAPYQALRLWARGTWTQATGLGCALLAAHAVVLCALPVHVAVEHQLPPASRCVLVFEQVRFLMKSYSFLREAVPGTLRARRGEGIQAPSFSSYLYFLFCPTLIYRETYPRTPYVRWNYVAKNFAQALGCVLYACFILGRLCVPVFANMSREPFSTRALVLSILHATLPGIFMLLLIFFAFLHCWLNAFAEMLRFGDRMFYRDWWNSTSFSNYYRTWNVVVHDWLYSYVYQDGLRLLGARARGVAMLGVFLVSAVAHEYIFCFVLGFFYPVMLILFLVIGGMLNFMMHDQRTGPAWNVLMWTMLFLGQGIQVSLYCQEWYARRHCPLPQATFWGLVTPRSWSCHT

[2] = target: T2, Sterol O-acyltransferase 2 (Homo sapiens) (UniProt O75908); assay: Inhibition of human ACAT2 at 1 mM
T2 sequence (whole entry): T1 sequence (O75908 whole entry)

[3] = target: T3, Sterol O-acyltransferase 1 (Mus musculus) (UniProt Q61263); assay: Inhibition of ACAT1 in mouse N9 cells assessed as increase in Cys-amyloid beta 1 to 42 uptake pretreated for 8 hrs followed by Cys-amyloid beta 1 to 42 addition measured after 3 hrs by flow cytometry relative to control; type: cell-based; set-up: scale not given: the % may be the effect or the level left
T3 sequence (whole entry): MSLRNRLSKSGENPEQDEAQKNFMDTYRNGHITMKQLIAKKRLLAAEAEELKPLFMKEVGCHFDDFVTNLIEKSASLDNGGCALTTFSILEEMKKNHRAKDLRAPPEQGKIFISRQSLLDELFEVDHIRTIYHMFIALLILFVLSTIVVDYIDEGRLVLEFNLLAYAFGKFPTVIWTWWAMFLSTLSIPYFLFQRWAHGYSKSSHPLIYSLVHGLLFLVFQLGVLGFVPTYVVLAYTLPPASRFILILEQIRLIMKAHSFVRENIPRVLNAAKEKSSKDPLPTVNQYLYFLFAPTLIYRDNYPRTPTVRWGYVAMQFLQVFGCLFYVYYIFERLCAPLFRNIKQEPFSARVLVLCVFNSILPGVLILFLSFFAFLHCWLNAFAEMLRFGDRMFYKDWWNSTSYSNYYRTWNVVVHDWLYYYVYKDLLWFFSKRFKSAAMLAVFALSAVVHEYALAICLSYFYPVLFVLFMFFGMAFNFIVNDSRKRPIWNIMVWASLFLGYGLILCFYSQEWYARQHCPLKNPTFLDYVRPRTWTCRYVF

[4] = target: T3, Sterol O-acyltransferase 1 (Mus musculus); assay: Inhibition of ACAT1 in mouse N9 cells; type: cell-based
[5] = target: T3, Sterol O-acyltransferase 1 (Mus musculus); assay: Inhibition of ACAT1 in mouse N9 cells assessed as increase in lysosome biogenesis by measuring Lyso tracker fluorescence measured after 8 hrs by Lyso tracker staining based flow cytometry; type: cell-based
[6] = target: T3, Sterol O-acyltransferase 1 (Mus musculus); assay: Inhibition of ACAT1 in wild type mouse microglia assessed as increase in clearance of oligomeric amyloid beta at 1 uM pretreated for 24 hrs followed by oligomeric amyloid beta addition measured after 18 hrs by western blot analysis relative to control
[7] = target: T3, Sterol O-acyltransferase 1 (Mus musculus); assay: Inhibition of ACAT1 in mouse N9 cells assessed as effect on […] by measuring p62 levels in presence of Torin-1 by Western blot analysis; type: cell-based
[8] = target: T3, Sterol O-acyltransferase 1 (Mus musculus); assay: Inhibition of ACAT1 in TFEB knock-down mouse N9 cells assessed as autophagosome formation by measuring LC3-2 levels; type: cell-based
[9] = target: T3, Sterol O-acyltransferase 1 (Mus musculus); assay: Inhibition of ACAT1 in mouse N9 cells assessed as effect on autophagosome formation by measuring LC3-2 levels in presence of squalene synthase inhibitor CP-340868; type: cell-based
[10] = target: T3, Sterol O-acyltransferase 1 (Mus musculus); assay: Inhibition of ACAT1 in mouse N9 cells assessed as increase in late endosomes/lysosomes volume measured after 8 hrs by Lyso tracker staining based flow cytometry relative to control; type: cell-based; settings: concentration not given here
[11] = target: T3, Sterol O-acyltransferase 1 (Mus musculus); assay: Inhibition of ACAT1 in mouse N9 cells at 0.1 uM measured after 8 hrs by Lyso tracker staining based flow cytometry relative to control; type: cell-based
[12] = target: T3, Sterol O-acyltransferase 1 (Mus musculus); assay: Inhibition of ACAT1 in mouse N9 cells assessed as reduction in oligomeric amyloid beta 1 to 42 pretreated for 24 hrs followed by oligomeric amyloid beta 1 to 42 addition measured after 12 hrs by Western blot analysis relative to control; type: cell-based; settings: concentration not given here
[13] = target: T3, Sterol O-acyltransferase 1 (Mus musculus); assay: Inhibition of ACAT1 in mouse N9 cells assessed as induction of autophagy by measuring LC3-2 at 0.1 uM by Western blot analysis; type: cell-based
[14] = target: T3, Sterol O-acyltransferase 1 (Mus musculus); assay: Inhibition of ACAT1 in mouse N9 cells assessed as increase in autophagic flux by measuring LC3-2 levels in presence of Torin-1 by Western blot analysis; type: cell-based
[15] = target: T3, Sterol O-acyltransferase 1 (Mus musculus); assay: Inhibition of ACAT1 in mouse N9 cells assessed as increase in TFEB target genes mRNA expression measured after 8 hrs by qPCR analysis; type: cell-based
[16] = target: T4, Sterol O-acyltransferase 2 (Chlorocebus aethiops, UniProt O77759); assay: Inhibition of African green monkey ACAT2 expressed in mouse AC29 cells assessed as reduction in esterification of NBD-cholesterol preincubated for 20 mins followed by NBD-cholesterol addition measured after 6 hrs by high-performance TLC method; type: cell-based
T4 sequence (O77759 whole entry): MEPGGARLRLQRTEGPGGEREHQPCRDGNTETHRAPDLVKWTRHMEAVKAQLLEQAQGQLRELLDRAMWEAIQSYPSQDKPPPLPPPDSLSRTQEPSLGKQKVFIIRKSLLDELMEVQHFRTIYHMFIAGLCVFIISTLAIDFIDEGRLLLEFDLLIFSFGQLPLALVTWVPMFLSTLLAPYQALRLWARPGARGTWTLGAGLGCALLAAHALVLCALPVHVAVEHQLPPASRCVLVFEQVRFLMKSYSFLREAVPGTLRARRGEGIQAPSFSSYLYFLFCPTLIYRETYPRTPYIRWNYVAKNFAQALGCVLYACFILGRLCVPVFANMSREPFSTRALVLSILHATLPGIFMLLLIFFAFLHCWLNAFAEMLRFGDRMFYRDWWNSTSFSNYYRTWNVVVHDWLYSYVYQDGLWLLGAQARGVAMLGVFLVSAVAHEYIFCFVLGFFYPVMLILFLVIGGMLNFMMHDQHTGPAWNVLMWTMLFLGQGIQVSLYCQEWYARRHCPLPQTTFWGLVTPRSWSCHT

Homo sapiens = organism: Homo sapiens; assay: Selectivity ratio of IC50 for human ACAT2 to IC50 for human ACAT1
[17] = target: T1, Sterol O-acyltransferase 2; assay: Inhibition of human ACAT2
[18] = target: T5, Sterol O-acyltransferase 1 (Homo sapiens, UniProt P35610); assay: Inhibition of human ACAT1
T5 sequence (P35610 whole entry): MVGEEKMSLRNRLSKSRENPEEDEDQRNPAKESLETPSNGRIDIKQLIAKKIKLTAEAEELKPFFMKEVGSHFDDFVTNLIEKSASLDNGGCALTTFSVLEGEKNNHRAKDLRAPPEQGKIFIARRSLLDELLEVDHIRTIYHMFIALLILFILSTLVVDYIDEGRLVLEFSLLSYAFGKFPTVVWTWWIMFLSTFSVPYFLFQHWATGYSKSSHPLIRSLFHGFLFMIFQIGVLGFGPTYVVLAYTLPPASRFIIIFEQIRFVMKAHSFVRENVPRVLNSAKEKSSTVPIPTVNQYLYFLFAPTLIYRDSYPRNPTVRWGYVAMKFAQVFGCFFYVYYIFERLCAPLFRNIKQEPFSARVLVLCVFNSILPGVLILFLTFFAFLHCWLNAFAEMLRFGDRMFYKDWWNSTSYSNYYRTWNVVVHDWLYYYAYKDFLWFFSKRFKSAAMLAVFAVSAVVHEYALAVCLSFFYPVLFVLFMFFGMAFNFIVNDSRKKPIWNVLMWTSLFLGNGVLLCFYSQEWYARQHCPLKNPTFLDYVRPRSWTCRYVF

Mus musculus [19] = assay: Reduction in accumulation of amyloid plaque in C57BL/6 mouse overexpressing human APP751 with London (V717I) and Swedish ([…]) mutation administered as pellets into bloodstream; type: functional
Mus musculus [20] = assay: Reduction in brain cholesteryl esters in C57BL/6 mouse overexpressing human APP751 with London (V717I) and Swedish ([…]) mutation administered as pellets into bloodstream; type: functional
Mus musculus [21] = assay: Reduction in membrane/insoluble amyloid beta level in C57BL/6 mouse overexpressing human APP751 with London (V717I) and Swedish ([…]) mutation administered as pellets into bloodstream; type: functional
Mus musculus [22] = assay: Reduction in soluble amyloid beta42 in brain homogenates of C57BL/6 mouse overexpressing human APP751 with London (V717I) and Swedish ([…]) mutation administered as pellets into bloodstream; type: functional
[23] = target: T4, Sterol O-acyltransferase 2; assay: Inhibition of African green monkey ACAT2 expressed in CHO cells assessed as reduction in [14C]CE formation using [1-14C]oleoyl-CoA measured after 6 hrs by TLC method; type: cell-based

Structure (SMILES): COc1ccc([C@@H](O)[C@@H](C)Oc2ccc([C@H]3O[C@H](c4ccc(O[C@H](C)[C@H](O)c5ccc6c(c5)OCO6)c(OC)c4)[C@H](C)[C@H]3C)cc2OC)cc1OC
inhibition [2]: 32%

Structure (SMILES): CCCCCCCC[C@H](SCCCCCC)C(=O)Nc1c(SC)cc(C)nc1SC
inhibition (INH) (Mus musculus [19]): 88 - 99%
inhibition (INH) (Mus musculus [20]): 86%
inhibition (INH) (Mus musculus [21]): 83 - 96%
inhibition (INH) (Mus musculus [22]): 34%

Structure (SMILES): CCCC[C@H](C)[C@@H]1CC(=O)N[C@@H](Cc2ccccc2)C(=O)N[C@@H](C)C(=O)N[C@H](CC(C)C)C(=O)O1 [BEAUVERIOLIDE I]
IC50 [23]: 20 µM

The next lines start with the values.

IC50 [1]: 0.11 µM
Structure (SMILES): CCCCCCCCCCCCS[C@H](C(=O)Nc1cc(C)c(O)c(C)c1C)c1ccccc1 [EFLUCIMIBE]

Activity [3]: 23%
inhibition [4]: Dose-dependent effect
inhibition [5]: Active
inhibition [6]: < 65%
inhibition [7]: Active
inhibition [8]: Active
inhibition [9]: Active
inhibition [10]: 27%
inhibition [11]: 80%
inhibition [12]: 58%
inhibition [13]: Active
inhibition [14]: Active
inhibition [15]: Active
Structure (SMILES): CSc1cc(C)nc(SC)c1NC(=O)CN1CCN(CCSc2nc3ccccc3[nH]2)CC1

IC50 [16]: 0.53 µM
Structure (SMILES): CC(C)c1cccc(C(C)C)c1NC(=O)CC(=O)C(Cc1ccccc1)Cc1ccc(OC(=O)CCCCCCN2CCCCCC2=O)cc1 (centres undefined)

Ratio IC50 (Homo sapiens): 4
IC50 [17]: 170 µM
IC50 [18]: 44 µM
Structure (SMILES): CCOC(=O)OC(=O)OCC [DIETHYL PYROCARBONATE]
